Patent US12252524B2, “GIP/GLP1 co-agonist compounds” (Eli Lilly and Company, priority 2018, dated 2025)
Numbered stars: 1 amine (or outer) side, 2 acyl side, 3 side chain; on linkers, the order of the positions; unused ones are H or OH. Square brackets hold non-standard residues; d marks the D form. Side chains are listed from the residue outwards. Peptide text beside a SMILES is read from it. * marks the point of attachment. C20 diacid = O=C(O)CCCCCCCCCCCCCCCCCCC(=O)*; γGlu = O=C(O)[C@H](CCC(=O)[*:2])N[*:1]; αMeL = CC(C)C[C@](C)(N)C(=O)O; Orn = NCCC[C@H](N)C(=O)O; AEEA = NCCOCCOCC(=O)O; Aib = CC(C)(N)C(=O)O

Columns and labels:
[1] = molecular target: human GLP-1 receptor (GLP-1R) (Homo sapiens, UniProt P43220); experiment: cAMP pharmacological functional assay in presence of casein, hGLP-1R; type: cell-based; settings: HEK293 cells expressing hGLP-1R, 0.1% Casein, geometric mean; read-out: hGLP1R cAMP Rel EC50 nM (SEM, n)
[2] = molecular target: T1, gastric inhibitory peptide receptor (GIPR) (Homo sapiens, UniProt P48546); experiment: cAMP pharmacological functional assay in presence of casein, hGIPR; type: cell-based; settings: HEK293 cells expressing hGIPR, 0.1% Casein, geometric mean; read-out: hGIPR cAMP Rel EC50 nM (SEM, n)
T1 sequence (P48546 22-466): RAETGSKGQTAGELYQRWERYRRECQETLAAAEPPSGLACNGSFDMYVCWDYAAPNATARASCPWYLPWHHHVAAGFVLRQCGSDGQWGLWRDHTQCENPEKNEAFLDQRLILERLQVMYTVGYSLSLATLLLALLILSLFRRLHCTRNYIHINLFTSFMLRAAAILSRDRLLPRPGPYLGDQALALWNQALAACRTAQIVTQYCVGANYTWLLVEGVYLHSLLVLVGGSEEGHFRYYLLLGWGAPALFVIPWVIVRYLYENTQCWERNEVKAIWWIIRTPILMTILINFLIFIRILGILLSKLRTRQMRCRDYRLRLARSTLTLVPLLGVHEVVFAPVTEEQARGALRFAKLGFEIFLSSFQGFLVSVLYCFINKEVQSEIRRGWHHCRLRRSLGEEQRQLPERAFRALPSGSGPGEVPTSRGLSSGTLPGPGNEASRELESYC

[3] = molecular target: T2, human GLP-1R (Homo sapiens, UniProt P43220); experiment: GLP-1R CHO cell β-arrestin recruitment assay; type: cell-based; design: host or cells: CHO-K1 PathHunter cells, assay-ready frozen; settings: for EC50: CHO-K1 cells, PathHunter β-arrestin-2 recruitment, 0.1% casein, read-out: hGLP1R B-Arrestin2 Rel EC50 uM (SEM, n); for hGLP1R B-Arrestin2 % Top: normalized to GLP-1 maximum control
In short: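 PathHunter CHO-K1 cells with ProLink-tagged human GLP-1R and enzyme-acceptor-tagged β-arrestin-2 treated with serially diluted peptides in assay buffer containing 0.1% hydrolyzed casein, 90 min at 37 °C.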

[4] = molecular target: T2, human GLP-1R; experiment: GLP-1R HEK293 cell membrane [35S]GTPγS binding assay; type: biochemical; design: expressed in transfected cells; host or cells: HEK293 cells expressing human GLP-1R; membranes; settings: HEK293 cell membranes expressing human GLP-1R, [35S]GTPγS binding; read-out: hGLP1R GTPgS Rel EC50 nM (SEM, n)
In short: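 Membranes from HEK293 cells expressing the receptor incubated with peptide and […] [35S]GTPγS in HEPES pH 7.4 buffer with NaCl, MgCl2, saponin and BSA, 30 min at room temperature. Gαs-bound label captured by anti-Gαs antibody/SPA beads and counted; EC50 from four-parameter logistic fit.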

T2 sequence (P43220 24-463): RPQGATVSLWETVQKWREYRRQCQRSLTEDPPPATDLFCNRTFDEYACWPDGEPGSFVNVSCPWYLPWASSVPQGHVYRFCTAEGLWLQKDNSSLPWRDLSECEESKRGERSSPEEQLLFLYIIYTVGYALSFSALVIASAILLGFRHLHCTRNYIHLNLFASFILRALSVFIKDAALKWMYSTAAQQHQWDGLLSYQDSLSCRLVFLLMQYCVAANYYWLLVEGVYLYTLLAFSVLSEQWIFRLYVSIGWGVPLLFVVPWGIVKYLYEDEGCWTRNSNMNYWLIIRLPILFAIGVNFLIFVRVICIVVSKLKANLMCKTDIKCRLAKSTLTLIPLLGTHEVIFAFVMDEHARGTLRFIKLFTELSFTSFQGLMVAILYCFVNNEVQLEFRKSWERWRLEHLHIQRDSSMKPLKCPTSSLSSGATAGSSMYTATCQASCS
human GLP-1 receptor (GLP-1R), sequence (P43220 24-463): as above

CC[C@H](C)[C@H](NC(=O)[C@H](CC(C)C)NC(=O)[C@H](Cc1ccc(O)cc1)NC(=O)[C@@H](CCC(=O)O)NC(=O)[C@@H](NC(=O)[C@H](Cc1ccccc1)NC(=O)[C@H](CCC(=O)O)NC(=O)C(C)(C)NC(=O)[C@H](CCC(N)=O)NC(=O)[C@H](C)NC(=O)[C@H](CCCCNC(=O)COCCOCCNC(=O)COCCOCCNC(=O)CC[C@H](NC(=O)CCCCCCCCCCCCCCCCCCC(=O)O)C(=O)O)NC(=O)[C@H](CCCN)NC(=O)[C@H](CC(=O)O)NC(=O)[C@H](CC(C)C)NC(=O)[C@](C)(CC(C)C)NC(=O)[C@@H](NC(=O)[C@H](CO)NC(=O)[C@H](Cc1ccc(O)cc1)NC(=O)[C@H](CC(=O)O)NC(=O)[C@H](CO)NC(=O)[C@@H](NC(=O)[C@H](Cc1ccccc1)NC(=O)[C@@H](NC(=O)CNC(=O)[C@H](CCC(=O)O)NC(=O)C(C)(C)NC(=O)[C@H](N)Cc1ccc(O)cc1)[C@@H](C)O)[C@@H](C)O)[C@@H](C)CC)[C@@H](C)CC)C(=O)N[C@@H](CCC(=O)O)C(=O)NCC(=O)NCC(=O)N1CCC[C@H]1C(=O)N[C@@H](CO)C(=O)N[C@@H](CO)C(=O)NCC(=O)N[C@@H](C)C(=O)N1CCC[C@H]1C(=O)N1CCC[C@H]1C(=O)N1CCC[C@H]1C(=O)N[C@@H](CO)C(N)=O [Example 355] (H-[dY][Aib]EGTFTSDYSI[αMeL]LD[Orn]K([AEEA-AEEA-γGlu-C20 diacid])AQ[Aib]EFI[dE]YLIEGGPSSGAPPPS-NH2)
EC50 [1]: 0.896 nM | EC50 [2]: 0.685 nM | EC50 [3]: 0.363 µM | hGLP1R B-Arrestin2 % Top [3]: 18.3% | EC50 [4]: 1.76 nM

CC[C@H](C)[C@H](NC(=O)[C@H](CC(C)C)NC(=O)[C@H](Cc1ccc(O)cc1)NC(=O)[C@@H](CCC(=O)O)NC(=O)[C@@H](NC(=O)[C@H](Cc1ccccc1)NC(=O)[C@H](CCC(=O)O)NC(=O)C(C)(C)NC(=O)[C@H](CCC(N)=O)NC(=O)[C@H](C)NC(=O)[C@H](CCCCNC(=O)COCCOCCNC(=O)COCCOCCNC(=O)CC[C@H](NC(=O)CCCCCCCCCCCCCCCCCCC(=O)O)C(=O)O)NC(=O)[C@H](CCCCN)NC(=O)[C@H](CC(=O)O)NC(=O)[C@H](CC(C)C)NC(=O)[C@](C)(CC(C)C)NC(=O)[C@@H](NC(=O)[C@H](CO)NC(=O)[C@H](Cc1ccc(O)cc1)NC(=O)[C@H](CC(=O)O)NC(=O)[C@H](CO)NC(=O)[C@@H](NC(=O)[C@H](Cc1ccccc1)NC(=O)[C@@H](NC(=O)CNC(=O)[C@H](CCC(=O)O)NC(=O)C(C)(C)NC(=O)[C@H](N)Cc1ccc(O)cc1)[C@@H](C)O)[C@@H](C)O)[C@@H](C)CC)[C@@H](C)CC)C(=O)N[C@@H](CCC(=O)O)C(=O)NCC(=O)NCC(=O)N1CCC[C@H]1C(=O)N[C@@H](CO)C(=O)N[C@@H](CO)C(=O)NCC(=O)N[C@@H](C)C(=O)N1CCC[C@H]1C(=O)N1CCC[C@H]1C(=O)N1CCC[C@H]1C(=O)N[C@@H](CO)C(N)=O [Example 353] (H-[dY][Aib]EGTFTSDYSI[αMeL]LDKK([AEEA-AEEA-γGlu-C20 diacid])AQ[Aib]EFI[dE]YLIEGGPSSGAPPPS-NH2)
EC50 [1]: 1.09 nM | EC50 [2]: 0.497 nM | EC50 [3]: 0.559 µM | hGLP1R B-Arrestin2 % Top [3]: 23.0% | EC50 [4]: 1.96 nM
